In general, IC50 refers to the midpoint of a concentration-inhibition curve. Read a high IC50 as a need for much substance.

Assay [1] addresses T1, human MetAP2 enzyme (Homo sapiens, UniProt P50579). The assay can be described thus: MetAP2 enzyme assay, enzyme complexed with manganese ions. The following applies: MetAP2 Mn pIC50, MetAP2 enzyme complexed with manganese ions; Met-AMC substrate at Km.
Procedure: DNA encoding the full-length sequence of human MetAP2 enzyme is amplified by PCR and cloned into a pFastBac expression vector (Invitrogen). Recombinant baculovirus incorporating the MetAP2 construct is generated by transposition using the Bac-to-Bac system (Invitrogen). The expression of recombinant protein is carried out by infection of Spodoptera frugiperda Sf9 cells (Invitrogen) in 5 L Wave Bioreactors (Wave Biotech). Recombinant protein is isolated from cellular extracts by binding to an SP Hitrap Fast Flow or SP Sepharose (Sigma) column, and the protein is eluted using a NaCl gradient. Partially purified extracts of MetAP2 are further purified by an AKTA FPLC over a Superdex-200 column (GE). The purity of MetAP2 protein is determined on denaturing SDS-PAGE gel.
The results for each well are expressed as percent inhibition and calculated using the equation:
Assay [2] deals with T1, human MetAP2 enzyme. The assay can be described thus: MetAP2 enzyme assay, enzyme complexed with cobalt ions. The following applies: MetAP2 Co pIC50, MetAP2 enzyme complexed with cobalt ions; Met-AMC substrate at Km.

T1 sequence (P50579 whole entry): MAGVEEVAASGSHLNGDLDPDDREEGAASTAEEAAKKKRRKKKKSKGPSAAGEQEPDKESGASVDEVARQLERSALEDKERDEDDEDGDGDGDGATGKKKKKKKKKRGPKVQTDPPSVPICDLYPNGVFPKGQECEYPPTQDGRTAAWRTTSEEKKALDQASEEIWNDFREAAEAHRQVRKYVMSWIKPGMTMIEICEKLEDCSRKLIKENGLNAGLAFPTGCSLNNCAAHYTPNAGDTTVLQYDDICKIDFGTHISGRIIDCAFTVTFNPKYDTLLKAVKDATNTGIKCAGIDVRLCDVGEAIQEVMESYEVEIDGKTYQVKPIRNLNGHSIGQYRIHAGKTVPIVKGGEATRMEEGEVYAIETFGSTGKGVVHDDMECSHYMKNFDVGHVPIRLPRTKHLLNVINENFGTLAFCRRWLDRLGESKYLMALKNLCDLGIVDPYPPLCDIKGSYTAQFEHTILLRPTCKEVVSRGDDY

`N#Cc1cnc(N)c(-c2cc(C(F)(F)F)cc3[nH]ncc23)c1` [Example 212, 6-amino-5-(6-(trifluoromethyl)-1H-indazol-4-yl)nicotinonitrile]: the half-inhibitory concentration (IC50) is 10 nM against human MetAP2 enzyme [1] and 200 nM against human MetAP2 enzyme [2].
On the same counts, the results for `O=c1[nH]cnc2[nH]nc(-c3cc(C(F)(F)F)cc4[nH]ncc34)c12` [Example 156, 3-(6-(trifluoromethyl)-1H-indazol-4-yl)-1H-pyrazolo[3,4-d]pyrimidin-4(5H)-one] are 31.6 nM and 501 nM.
For `COCC(=O)Nc1ccc(-c2cc(C(F)(F)F)cc3[nH]ncc23)c(C)n1` [Example 258, 2-methoxy-N-(6-methyl-5-(6-(trifluoromethyl)-1H-indazol-4-yl)pyridin-2-yl)acetamide], in that order: 7.94 nM and 25.1 nM.
For `O=S(=O)(c1ccc(-c2cc(C(F)(F)F)cc3[nH]ncc23)cc1)N1CCOCC1` [Example 225, 4-(4-(6-(trifluoromethyl)-1H-indazol-4-yl)phenylsulfonyl)morpholine], in that order: 7.94 nM and 100 nM.
In the case of `Cc1c(-c2cc(C(F)(F)F)cc3[nH]ncc23)ccc(=O)n1C` [Example 402, 1,6-dimethyl-5-(6-(trifluoromethyl)-1H-indazol-4-yl)pyridin-2(1H)-one], the IC50 at human MetAP2 enzyme [1] is 3.16 nM; on human MetAP2 enzyme [2], 39.8 nM.
On the same counts, the results for `COc1ccc(C(=O)N2CCN(C)CC2)cc1-c1cc(C(F)(F)F)cc2[nH]ncc12` [Example 266, (4-methoxy-3-(6-(trifluoromethyl)-1H-indazol-4-yl)phenyl)(4-methylpiperazin-1-yl)methanone] are 12.6 nM and 63.1 nM.
For `COc1ncc(-c2cc(C(F)(F)F)cc3[nH]ncc23)cc1C(N)=O` [Example 232, 2-methoxy-5-(6-(trifluoromethyl)-1H-indazol-4-yl)nicotinamide], in that order: 6.31 nM and 63.1 nM.
For `CN(C)C(=O)c1cc(-c2cc(C(F)(F)F)cc3[nH]ncc23)c(=O)n(C)c1` [Example 353, N,N,1-trimethyl-6-oxo-5-(6-(trifluoromethyl)-1H-indazol-4-yl)-1,6-dihydropyridine-3-carboxamide], in that order: 15.8 nM and 794 nM.
With `Cn1cc(-c2cc(C(F)(F)F)cc3[nH]ncc23)c(=O)[nH]c1=O` [Example 278, 1-methyl-5-(6-(trifluoromethyl)-1H-indazol-4-yl)pyrimidine-2,4(1H,3H)-dione], the IC50 against human MetAP2 enzyme [1] was 10 nM; against human MetAP2 enzyme [2] it was 631 nM.
On the same counts, the results for `Nc1ccc(-c2cc(C(F)(F)F)cc3[nH]ncc23)cn1` [Example 16, 5-(6-(trifluoromethyl)-1H-indazol-4-yl)pyridin-2-amine] are 5.01 nM and 31.6 nM.
As to `O=S(=O)(NCCO)c1ccc(-c2cc(C(F)(F)F)cc3[nH]ncc23)cn1` [Example 378, N-(2-hydroxyethyl)-5-(6-(trifluoromethyl)-1H-indazol-4-yl)pyridine-2-sulfonamide], the figures for the IC50 at human MetAP2 enzyme [1] and against human MetAP2 enzyme [2] were 5.01 nM and 63.1 nM, respectively.
For `FC(F)(F)c1cc(-c2cnc(N3CCCC3)nc2)c2cn[nH]c2c1` [Example 116, 4-(2-(pyrrolidin-1-yl)pyrimidin-5-yl)-6-(trifluoromethyl)-1H-indazole], in that order: 7.94 nM and 39.8 nM.
For `CN(C)CCOc1ccc(-c2cc(C(F)(F)F)cc3[nH]ncc23)cc1` [Example 280, N,N-dimethyl-2-(4-(6-(trifluoromethyl)-1H-indazol-4-yl)phenoxy)ethanamine], the IC50 against human MetAP2 enzyme [1] is 6.31 nM; at human MetAP2 enzyme [2], 31.6 nM.
For `FC(F)(F)c1cc(-c2cnc3cnccn23)c2cn[nH]c2c1` [Example 152, 3-(6-(trifluoromethyl)-1H-indazol-4-yl)imidazo[1,2-a]pyrazine], in that order: 126 nM and 2000 nM.
On the same counts, the results for `Cc1cc(Cn2nc(CO)c(-c3cc(C(F)(F)F)cc4[nH]ncc34)c2C)on1` (single isomer, unassigned) [Example 411, (5-methyl-1-((3-methylisoxazol-5-yl)methyl)-4-(6-(trifluoromethyl)-1H-indazol-4-yl)-1H-pyrazol-3-yl)methanol] are 7.94 nM and 6.31 nM.
For `FC(F)(F)c1cc(-c2ccc(OCC3CC3)nc2)c2cn[nH]c2c1` [Example 58, 4-(6-(cyclopropylmethoxy)pyridin-3-yl)-6-(trifluoromethyl)-1H-indazole], in that order: 12.6 nM and 126 nM.
On to `Cc1cc(-c2cc(C(F)(F)F)cc3[nH]ncc23)n(C)n1` [Example 126, 4-(1,3-dimethyl-1H-pyrazol-5-yl)-6-(trifluoromethyl)-1H-indazole], for which the figures for the IC50 against human MetAP2 enzyme [1] and at human MetAP2 enzyme [2] were 7.94 nM and 50.1 nM, respectively.
For `FC(F)(F)c1cc(-c2ccncc2)c2cn[nH]c2c1` [Example 14, 4-(pyridin-4-yl)-6-(trifluoromethyl)-1H-indazole], in that order: 10 nM and 100 nM.
With `O=C(c1ccc(-c2cc(C(F)(F)F)cc3[nH]ncc23)cn1)N1CCOCC1` [Example 262, morpholino(5-(6-(trifluoromethyl)-1H-indazol-4-yl)pyridin-2-yl)methanone], the 50% inhibitory concentration (IC50) is 10 nM against human MetAP2 enzyme [1] and 200 nM against human MetAP2 enzyme [2].
As to `O=C(NCCO)c1ccc(-c2cc(C(F)(F)F)cc3[nH]ncc23)cc1` [Example 130, N-(2-hydroxyethyl)-4-(6-(trifluoromethyl)-1H-indazol-4-yl)benzamide], the results for the IC50 at human MetAP2 enzyme [1] and on human MetAP2 enzyme [2] were 1.58 nM and 7.94 nM, respectively.
As for `Cc1nc(-n2cnnc2)ccc1-c1cc(C(F)(F)F)cc2[nH]ncc12` [Example 383, 4-(2-methyl-6-(4H-1,2,4-triazol-4-yl)pyridin-3-yl)-6-(trifluoromethyl)-1H-indazole], the results for the IC50 on human MetAP2 enzyme [1] and on human MetAP2 enzyme [2] were 5.01 nM and 20 nM, respectively.
On to `O=C(NCCO)c1c[nH]c(=O)c(-c2cc(C(F)(F)F)cc3[nH]ncc23)c1` [Example 299, N-(2-hydroxyethyl)-6-oxo-5-(6-(trifluoromethyl)-1H-indazol-4-yl)-1,6-dihydropyridine-3-carboxamide], for which the half-maximal inhibitory concentration (IC50) against human MetAP2 enzyme [1] is 7.94 nM; on human MetAP2 enzyme [2], 398 nM.
For `O=C(NC1CC1)c1c[nH]c(=O)c(-c2cc(C(F)(F)F)cc3[nH]ncc23)c1` [Example 332, N-cyclopropyl-6-oxo-5-(6-(trifluoromethyl)-1H-indazol-4-yl)-1,6-dihydropyridine-3-carboxamide], in that order: 12.6 nM and 316 nM.
Consider `O=S(=O)(NCCO)c1ccc(-c2cc(C(F)(F)F)cc3[nH]ncc23)cc1` [Example 224, N-(2-hydroxyethyl)-4-(6-(trifluoromethyl)-1H-indazol-4-yl)benzenesulfonamide], for which the half-maximal inhibitory concentration (IC50) at human MetAP2 enzyme [1] was 2.51 nM; on human MetAP2 enzyme [2] it was 39.8 nM.
For the compound `NC(=O)c1cccc(-c2cc(C(F)(F)F)cc3[nH]ncc23)c1` [Example 18, 3-(6-(trifluoromethyl)-1H-indazol-4-yl)benzamide], the IC50 against human MetAP2 enzyme [1] is 3.16 nM; against human MetAP2 enzyme [2], 25.1 nM.
On the same counts, the results for `OCCNc1ncc(-c2cc(C(F)(F)F)cc3[nH]ncc23)cn1` [Example 209, 2-(5-(6-(trifluoromethyl)-1H-indazol-4-yl)pyrimidin-2-ylamino)ethanol] are 6.31 nM and 79.4 nM.
On the same counts, the results for `O=C(NCCO)c1ccc(-c2cc(C(F)(F)F)cc3[nH]ncc23)c(Cl)c1` [Example 331, 3-chloro-N-(2-hydroxyethyl)-4-(6-(trifluoromethyl)-1H-indazol-4-yl)benzamide] are 10 nM and 15.8 nM.
On the same counts, the results for `COCc1ccc(-c2cc(C(F)(F)F)cc3[nH]ncc23)cc1` [Example 48, 4-(4-(methoxymethyl)phenyl)-6-(trifluoromethyl)-1H-indazole] are 5.01 nM and 50.1 nM.
Turning to `FC(F)(F)c1cc(-c2cccc(-c3cc[nH]n3)c2)c2cn[nH]c2c1` [Example 61, 4-(3-(1H-pyrazol-3-yl)phenyl)-6-(trifluoromethyl)-1H-indazole], the IC50 is 39.8 nM at human MetAP2 enzyme [1] and 158 nM at human MetAP2 enzyme [2].
For `COc1cc(C(=O)N2CCOCC2)ccc1-c1cc(C(F)(F)F)cc2[nH]ncc12` [Example 318, (3-methoxy-4-(6-(trifluoromethyl)-1H-indazol-4-yl)phenyl)(morpholino)methanone], in that order: 12.6 nM and 39.8 nM.
In the case of `OCc1ccccc1-c1cc(C(F)(F)F)cc2[nH]ncc12` [Example 12, (2-(6-(trifluoromethyl)-1H-indazol-4-yl)phenyl)methanol], the IC50 against human MetAP2 enzyme [1] is 3.16 nM; on human MetAP2 enzyme [2], 39.8 nM.
On the same counts, the results for `O=C(c1cccc(-c2cc(C(F)(F)F)cc3[nH]ncc23)c1)N1CCCC1` [Example 85, pyrrolidin-1-yl(3-(6-(trifluoromethyl)-1H-indazol-4-yl)phenyl)methanone] are 6.31 nM and 79.4 nM.
On the same counts, the results for `Cc1ccc(C(=O)N2CCC(O)CC2)cc1-c1cc(C(F)(F)F)cc2[nH]ncc12` [Example 372, (4-hydroxypiperidin-1-yl)(4-methyl-3-(6-(trifluoromethyl)-1H-indazol-4-yl)phenyl)methanone] are 31.6 nM and 100 nM.
For `O=S(=O)(CCO)c1ccccc1-c1cc(C(F)(F)F)cc2[nH]ncc12` [Example 182, 2-(2-(6-(trifluoromethyl)-1H-indazol-4-yl)phenylsulfonyl)ethanol], in that order: 25.1 nM and 794 nM.
As for `COC(=O)c1ccc(-c2cc(C(F)(F)F)cc3[nH]ncc23)cn1` [Example 269, methyl 5-(6-(trifluoromethyl)-1H-indazol-4-yl)picolinate], the IC50 is 3.98 nM against human MetAP2 enzyme [1] and 63.1 nM against human MetAP2 enzyme [2].

Values taken from patent US9434743B2, “Indazole derivatives” (TAKEDA PHARMACEUTICAL COMPANY LIMITED, priority 2012, dated 2016).
